Reference: ChEMBL document CHEMBL1135608, “Discovery of the first nonpeptide agonist of the GPR14/urotensin-II receptor: 3-(4-chlorophenyl)-3-(2- (dimethylamino)ethyl)isochroman-1-one (AC-7954)” (J Med Chem, 2002)

What was measured:
Urotensin-2 receptor [1] = biological target: T1, Urotensin-2 receptor (Homo sapiens, UniProt Q9UKP6); assay: Potency against human Urotensin 2 receptor
T1 sequence (Q9UKP6 whole entry): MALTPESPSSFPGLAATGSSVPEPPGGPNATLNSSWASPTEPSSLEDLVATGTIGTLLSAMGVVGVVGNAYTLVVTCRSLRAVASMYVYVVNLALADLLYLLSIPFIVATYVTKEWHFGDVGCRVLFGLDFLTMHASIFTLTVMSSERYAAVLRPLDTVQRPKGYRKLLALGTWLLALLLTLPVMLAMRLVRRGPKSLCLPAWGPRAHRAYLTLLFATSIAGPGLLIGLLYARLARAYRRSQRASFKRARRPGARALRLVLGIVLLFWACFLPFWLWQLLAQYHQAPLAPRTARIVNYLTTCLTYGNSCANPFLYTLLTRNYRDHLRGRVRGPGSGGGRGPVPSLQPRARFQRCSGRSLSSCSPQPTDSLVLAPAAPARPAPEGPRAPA

[2] = Dissociation constant of the compound; type: physicochemical
[3] = Lipophilicity of the compound; type: physicochemical; conditions: octanol/water
Urotensin-2 receptor [4] = biological target: T2, Urotensin-2 receptor (Rattus norvegicus, UniProt P49684); assay: Potency against rat Urotensin 2 receptor
T2 sequence (P49684 whole entry): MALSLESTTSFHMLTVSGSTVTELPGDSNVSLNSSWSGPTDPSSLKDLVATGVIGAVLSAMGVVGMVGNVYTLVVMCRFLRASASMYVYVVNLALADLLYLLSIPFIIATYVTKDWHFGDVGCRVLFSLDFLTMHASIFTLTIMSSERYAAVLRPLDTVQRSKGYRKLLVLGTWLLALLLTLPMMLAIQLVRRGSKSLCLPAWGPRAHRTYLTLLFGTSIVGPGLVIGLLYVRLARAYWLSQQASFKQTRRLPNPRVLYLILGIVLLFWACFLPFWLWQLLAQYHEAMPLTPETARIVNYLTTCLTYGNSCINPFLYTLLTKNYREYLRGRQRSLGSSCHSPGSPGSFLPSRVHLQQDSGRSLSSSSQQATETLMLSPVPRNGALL

Question: Which EC50 (Urotensin-2 receptor [1]) does the source give for `CN(C)CCC1(c2ccc(Cl)cc2)Cc2ccccc2C(=O)O1` (single isomer, unassigned; (+)) here?
Answer: 251 nM

Question: For `CN(C)CCC1(c2ccc(Cl)cc2)Cc2ccccc2C(=O)O1` (stereo in doubt; 1), which pKa [2] is on record?
Answer: 8.7

Question: What about the logD [3] of the same molecule?
Answer: 2.1

Question: What about the EC50 (Urotensin-2 receptor [4]) of the same molecule?
Answer: 200 nM

Question: And the EC50 (Urotensin-2 receptor [1])?
Answer: 316 nM
